In patent publication US10696661B2, “Compounds” (Exonate Limited, priority 2015, dated 2020):

Key:
[1] = system: laser-induced choroidal neovascularisation (CNV); assay: Laser-induced choroidal neovascularisation (CNV) in mice, topical eye drops; assay type: in vivo; details: mouse, eye drop, FIG. 4-7
Procedure: 6-8 week-old female C57/B6 mice were anesthetized with an intraperitoneal injection of a mixture of 50 mg/kg ketamine and 0.5 mg/kg medetomidine. The pupils were immediately dilated by topical (eyedrop) application with a dilator such as 5% phenylephrine hydrochloride and 1% tropicamide. Four photocoagulation lesions were delivered with a green Merilas 532a laser (450 mW, 130 ms) between the “large” retinal vessels in clear space with no vessels in a peripapillary distribution at a distance of 1-2 disc-diameters in each eye. Only clean laser lesions with a subretinal bubble at the time of treatment were included in the study. Immediately following laser photocoagulation the animals were given topical eye drops of candidate compounds twice daily (10 μl, eyes held for 30 seconds to prevent animal wiping drop away).
After one week, mice were anesthetized with an intraperitoneal injection of a mixture of 50 mg/kg ketamine and 0.5 mg/kg medetomidine. The pupils were immediately dilated by topical (eyedrop) application with a dilator such as 5% phenylephrine hydrochloride and 1% tropicamide. Mice were administered an intraperitoneal injection of sodium fluorescein (10%). Phase contrast and green fluorescent fundus images were taken with an angiography microscope and camera with each lesion in focus. […]

[2] = system: VEGF165b and VEGF165 protein in retinal pigmented epithelial cells; assay: VEGF isoform specific ELISA in retinal pigmented epithelial cells; assay type: cell-based, human; details: relative to DMSO control, FIG. 3
Procedure: 96-well clear microplate (high sensitivity thermo immulon or costar 9018) were coated with 100 μL of 10 μg/ml VEGFxxxb or 0.25 μg/ml anti-hVEGF165a per well. The plate was sealed with parafilm and incubated overnight on the shaker at room temp. Each well was aspirated and washed with Wash Buffer (200 μl PBS-Tween 0.05%), two times for a total of three washes. After the last wash, remaining Wash Buffer was removed by inverting the plate and blotting it against clean paper towels. Plates were blocked by adding 100 μl of Reagent Diluent (1% BSA/PBS) to each well and incubated at room temp on a shaker for 2 hours. The aspiration/wash step was repeated. 100 μL of standards or samples in 1% BSA/PBS were added to each well, covered with parafilm and incubated 2 hours at room temperature. The aspiration/wash was repeated and 100 μL of 100 ng/ml Detection Antibody (BAF293), diluted in Reagent Diluent, was added to each well which were covered with parafilm and incubated 2 hours at room temp. The aspiration/wash was repeated and 100 μL of the working dilution of Streptavidin-HRP (1:200 dilution) was added to each well. […] The optical density of each well was measured immediately, using a microplate reader set to 450 nm.
To determine whether these compounds could switch splicing of VEGF isoforms, VEGF was measured in retinal pigmented epithelial cells by isoform specific ELISA.

VEGF165b and VEGF165 = details: cited from earlier work
[3] = system: VEGF-A165a / VEGF-A165b mRNA in primary RPE cells and ARPE-19 cells; assay: qRT-PCR and conventional PCR of VEGF-A alternative splicing; assay type: cell-based, human; details: FIGS. 8 and 9
From the text: Primary human retinal epithelial cells were lysed in Trizol reagent and mRNA was extracted using the method of Chomczynski and Sacchi, or using an RNeasy RNA extraction kit (Qiagen, UK). mRNA was reverse transcribed using Thermoscript reverse transcriptase (Fisher Scientific, UK). The cDNA was amplified using primers designed to amplify the region spanning the proximal and distal splice sites in human VEGF-A165a and VEGF-A165b, to amplify both isoforms and differentiate between them due to the fact that the exon 8b-containing isoform is 66-bp shorter than the exon 8a-containing isoform. The primers used were; 5′-[…]-3′ (SEQ ID NO:2) and 5′-[…]-3′ (SEQ ID NO:3) with the following conditions; 96° C. for 2 min followed by 45 cycles at 96° C.-30 s, 60° C.-30 s and 72° C.-30 s. The PCR mix consisted of DNA: 200 ng, MgCl2 0.25 mM, Primer each […], Taq polymerase 1 unit and dH2O up to 25 μl. Control plasmid concentration: VEGF165a 500 ng and VEGF165b 1 μg. PCR products were run on 3% agarose gels containing 0.5 μg/ml ethidium bromide.
RNA was isolated and reverse transcribed as described above. Quantitative PCR (qPCR) was performed with a LightCycler 480 (Roche) q-PCR machine. The qPCR mix included PCR-grade dH2O 3 PCR Primer (1 μM) 2 μl. […]
VEGF-A alternative splicing was further measured in retinal pigmented epithelial cells by qRT-PCR and conventional PCR.

neovascular AMD = details: treated monthly, 0.5 mg, at one year; cited from earlier work

Question: For `O=C(Nc1cc(C(F)(F)F)ccc1N1CCN(Cc2cocn2)CC1)c1ccc(-c2ccncc2)o1` [Compound 17, N-(2-(4-(oxazol-4-ylmethyl)piperazin-1-yl)-5-(trifluoromethyl)phenyl)-5-(pyridin-4-yl)furan-2-carboxamide], which “anti-angiogenic activity on lesion size / efficacy compared with reference compound” value ([1]; listed as N-(2-(4-(oxazol-4-ylmethyl)piperazin-1-yl)-5-(trifluoromethyl)phenyl)-5-(pyridin)) is on record?
Answer: same efficacy

Question: What about the “anti-angiogenic activity on lesion size / efficacy compared with reference compound” value ([1]; listed as compound 17) of the same molecule?
Answer: same anti-angiogenic activity on lesion size and the same efficacy as reference compounds

Question: And the VEGF165b protein [2]?
Answer: increase in VEGF165b

Question: And the VEGF165 protein [2]?
Answer: not VEGF165 protein

Question: Which “binding potency to VEGF165b versus VEGF165” value (VEGF165b and VEGF165) does the source give for “bevicizumab (Avastin): an anti-VEGF antibody from which Lucentis was derived” here?
Answer: equal potency

Question: For `O=C(Nc1cc(C(F)(F)F)ccc1N1CCN(Cc2cc[nH]n2)CC1)c1ccc(C2CCOCC2)o1` [Compound 14, N-(2-(4-((1H-pyrazol-3-yl)methyl)piperazin-1-yl)-5-(trifluoromethyl)-phenyl)-5-(tetrahydro-2H-pyran-4-yl)furan-2-carboxamide], which “VEGF-A165a/VEGF165b mRNA isoform expression” value ([3]; endothelial cells (figure legend)) is on record?
Answer: decrease

Question: What about the “levels of VEGF165b relative to VEGF165 RNA” value ([3]; primary RPE cells and ARPE-19 cells) of the same molecule?
Answer: switched the levels of VEGF165b relative to VEGF165 RNA by a decrease in VEGF165

B1: Lucentis: a novel humanized anti-VEGF antibody fragment (antibody, chains of the INN, looked up, V domains shown)
VH: EVQLVESGGGLVQPGGSLRLSCAASGYDFTHYGMNWVRQAPGKGLEWVGWINTYTGEPTYAADFKRRFTFSLDTSKSTAYLQMNSLRAEDTAVYYCAKYPYYYGTSHWYFDVWGQGTLVTVSS
VL: DIQLTQSPSSLSASVGDRVTITCSASQDISNYLNWYQQKPGKAPKVLIYFTSSLHSGVPSRFSGSGSGTDFTLTISSLQPEDFATYYCQQYSTVPWTFGQGTKVEIK
modifications: Fab
notes: a novel humanized anti-VEGF antibody fragment
Question: What does the source list for B1?
Answer: patients who maintained visual acuity (loss of <15 letters) (neovascular AMD): approximately 95%; patients with improved vision (gain of ≥15 letters) (neovascular AMD): ≤ 40%
